According to patent US8420311B2, “Method to block the infection by flaviviruses, molecules and uses” (Centro de Ingenieria Genetica y Biotecnologia, priority 2006, dated 2013):
Where a SMILES comes first, the peptide text is derived from it. Bridges are numbered along the chain shown (N, C = ends). Where no end group is shown, it is not given here.

Key:
Type in all cases: cell-based, dengue virus
DV2 = details: peptides 0.1 mg/ml; Vero cells
Experimental: (§1) FIG. 17. Inhibition of the infection of Vero cells with DV1 and DV2. (A) Six-well plates with a monolayer at approximately 90% confluence were incubated for 30 min. at 37° C. with dilutions of the peptides in MEM medium. A dilution of either DV1 strain West Pac 74 or DV2 strain S16803 was then added, calculated so as to obtain an average of 100 lytic plaques per well, and the plates were incubated for 30 min. at 37° C. with the virus/peptide mixture. After the incubation the cells were washed twice, received the addition of MEM medium supplemented with non-essential amino acids, 1% fetal calf serum, 1% CMC, and finally were incubated for 5 days at 37° C. under a CO2 atmosphere. (B) Inhibitory effect of the peptides at 100 μMol/L. NRpep: Non-related peptide. Data on the sequence of the peptides 3H5pept (SEQ ID. 27), pepDIII-1 (SEQ ID. 28), HIII2CL (SEQ ID. 5) and HIII3CL (SEQ ID. 7), as well as on the region they span on DIII from DV, can be obtained from FIG. 11. The calculation of the inhibition percentages is described in Materials and Methods. (C) Inhibition of DV2 infection by using varying peptide concentrations. The viral plaques were visualized by staining with Naphtol Blue Black. Cell control: Untreated cells. Virus control: Cells incubated with the virus, but without peptide.
(§2) DIII has one of the most variable regions of the exposed surface of protein E. In fact, one of the antigenic characteristics of this domain is that the antibodies obtained against this region are predominantly serotype-specific (Roehrig J T, Bolin R A, Kelly R G (1998) Monoclonal antibody mapping of the envelope glycoprotein of the dengue 2 virus, Jamaica Virology 246:317-28). However, during the inhibition assay with different DV serotypes, the peptides display a wide-spectrum inhibitory activity, efficiently inhibiting the infection of strains of the homologous, as well as of the heterologous serotypes (table 3). It is important to notice that at the assayed concentration (0.1 mg/ml) all the peptides in all the conditions, with the exception of peptide HIII4CL for DV3, produced higher than 50% inhibition levels.

DV1 = details: peptides 0.1 mg/ml; Vero cells
Experimental: as §1, §2

DV4 = details: peptides 0.1 mg/ml; Vero cells
Text: as §2

DV3 = details: for degree of reduction of the number of viral plaques, DV3: peptides 0.1 mg/ml, Vero cells
Text: as §2

Compound | degree of reduction of the number of viral plaques, DV2 (DV2) | degree of reduction of the number of viral plaques, DV1 (DV1) | degree of reduction of the number of viral plaques, DV4 (DV4) | degree of reduction of the number of viral plaques, DV3 (DV3) | inhibition level, DV3 (DV3; 0.1 mg/ml)
HDIII1CL: cyclic synthetic peptide based on the FG beta hairpin of DIII of protein E from DV1, SEQ ID. 6 (CSYIVVGAGEKALKLSWC-NH2; disulfide 1-18 (inferred)) | + (50% or higher decrease) | + (50% or higher decrease) | + (50% or higher decrease) | + (50% or higher decrease) | –
CC[C@H](C)[C@@H]1NC(=O)[C@H](Cc2ccc(O)cc2)NC(=O)[C@H](CO)NC(=O)[C@@H](N)CSSC[C@@H](C(N)=O)NC(=O)[C@H](Cc2c[nH]c3ccccc23)NC(=O)[C@H](Cc2c[nH]cn2)NC(=O)[C@H](CC(C)C)NC(=O)[C@H]([C@@H](C)O)NC(=O)[C@H](CC(C)C)NC(=O)[C@H](C)NC(=O)[C@H](CO)NC(=O)[C@H](CC(N)=O)NC(=O)CNC(=O)[C@H](C(C)C)NC(=O)CNC(=O)[C@H]([C@@H](C)CC)NC(=O)[C@H](C(C)C)NC1=O [HDIII4CL] (H-CSYIVIGVGNSALTLHWC-NH2; disulfide 1-18; N-terminus assumed) | + (50% or higher decrease) | + (50% or higher decrease) | + (50% or higher decrease) | +/− (10-50% decrease in the number of plaques) | ≤ 50%
